Assay results: PubChem BioAssay (NCI)
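Assay format: 96-well plates, 48-hour exposure. TGI: concentration producing complete growth inhibition.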

Legend:
Experiment in all cases: DTP human tumour cell line panel, 48 h
OVCAR-3 ovarian = tested on: OVCAR-3 ovarian
SF-268 CNS = tested on: SF-268 CNS
HCT-116 colon = tested on: HCT-116 colon
U251 CNS = tested on: U251 CNS
HCC-2998 colon = tested on: HCC-2998 colon
SF-539 CNS = tested on: SF-539 CNS
SF-295 CNS = tested on: SF-295 CNS
SW-620 colon = tested on: SW-620 colon
SNB-19 CNS = tested on: SNB-19 CNS
T-47D breast = tested on: T-47D breast
A498 renal = tested on: A498 renal
MCF7 breast = tested on: MCF7 breast

| Structure (SMILES) | TGI (OVCAR-3 ovarian) | TGI (SF-268 CNS) | TGI (HCT-116 colon) | TGI (U251 CNS) | TGI (HCC-2998 colon) | TGI (SF-539 CNS) | TGI (SF-295 CNS) | TGI (SW-620 colon) | TGI (SNB-19 CNS) | TGI (T-47D breast) | TGI (A498 renal) | TGI (MCF7 breast) |
| --- | --- | --- | --- | --- | --- | --- | --- | --- | --- | --- | --- | --- |
| CC(C)(C)C1=C(Br)C(F)(C(C)(C)C)OP1(=O)c1ccccc1 (configuration not stated) | 28.8 µM | 36.2 µM | 31.8 µM | 31.3 µM | 28.4 µM | 33.2 µM | 37 µM | 32.3 µM | 30.6 µM | 42.1 µM | 40 µM | 30 µM |
| CCOC(=O)CNC(=O)C(CCC(=O)N(C)O)NC(=O)CCC(N)C(=O)O (configuration not stated) | > 100 µM | > 100 µM | > 100 µM | > 100 µM | > 100 µM | > 100 µM | > 100 µM | > 100 µM | > 100 µM | > 100 µM | > 100 µM | > 100 µM |
| Nc1ncnc2c1ncn2[C@H]1C=C[C@@H](NO)C1 | > 100 µM | > 100 µM | > 100 µM | > 100 µM | > 100 µM | > 100 µM | > 100 µM | > 100 µM | > 100 µM | > 100 µM | > 100 µM | > 100 µM |
| O=c1[nH]c(Nc2ccc(Br)c(C(F)(F)F)c2)nc2nc[nH]c12 | 87 µM | > 100 µM | > 100 µM | > 100 µM | 40.5 µM | > 100 µM | > 100 µM | > 100 µM | > 100 µM | > 100 µM | > 100 µM | > 100 µM |
| NC1=Nc2ccccc2Sc2nncn21 | > 100 µM | > 100 µM | > 100 µM | > 100 µM | > 100 µM | > 100 µM | > 100 µM | > 100 µM | > 100 µM | > 100 µM | > 100 µM | > 100 µM |
| CCOC(=O)C(NC(=O)c1cccc(Cl)c1)(Nc1ccc(S(=O)(=O)Nc2cc(C)on2)cc1)C(F)(F)F (configuration not stated) | > 100 µM | > 100 µM | > 100 µM | > 100 µM | > 100 µM | > 100 µM | 33.4 µM | > 100 µM | > 100 µM | > 100 µM | > 100 µM | > 100 µM |
| Cc1ccc(S(=O)(=O)n2cc(C=O)c(-c3cn(S(=O)(=O)c4ccc(C)cc4)cc3-c3cn(S(=O)(=O)c4ccc(C)cc4)cc3C=O)c2)cc1 | > 100 µM | > 100 µM | > 100 µM | > 100 µM | > 100 µM | 76.4 µM | > 100 µM | > 100 µM | > 100 µM | > 100 µM | > 100 µM | 87.2 µM |
| COc1cc(C2C=C(c3ccccc3)Oc3cc4c(cc32)OCO4)cc(OC)c1OC (configuration not stated) | > 100 µM | > 100 µM | 9.44 µM | > 100 µM | > 100 µM | 3.63 µM | > 16.9 µM | > 100 µM | > 100 µM | > 100 µM | > 100 µM | > 100 µM |
| COc1ccc(C2SCC(=O)N2c2ccc(-n3c(-c4ccccc4)nc4ccccc4c3=O)cc2)cc1 (configuration not stated) | > 100 µM | > 100 µM | > 100 µM | > 100 µM | > 100 µM | > 100 µM | > 100 µM | > 100 µM | > 100 µM | > 100 µM | > 100 µM | > 100 µM |
| OC1NC2Nc3ccccc3NC2NC1O (configuration not stated) | > 100 µM | > 100 µM | > 100 µM | > 100 µM | > 100 µM | > 100 µM | > 100 µM | > 100 µM | > 100 µM | > 100 µM | > 100 µM | > 100 µM |
| Cc1cn(C2CC(n3cc(Cn4ccc(=O)[nH]c4=O)nn3)C(CO)O2)c(=O)[nH]c1=O (configuration not stated) | > 100 µM | > 100 µM | > 100 µM | > 100 µM | > 100 µM | > 100 µM | > 100 µM | > 100 µM | > 100 µM | > 100 µM | > 100 µM | > 100 µM |
| O=[N+]([O-])c1ncc(N(CCO)CCO)s1 | > 100 µM | > 100 µM | > 100 µM | > 100 µM | > 100 µM | 30.7 µM | > 100 µM | > 100 µM | > 100 µM | 81.8 µM | > 100 µM | > 100 µM |
| C(=N\c1nc2cc3sc(/N=C/c4ccccc4)nc3cc2s1)/c1ccccc1 | > 100 µM | > 100 µM | > 100 µM | > 100 µM | > 100 µM | > 100 µM | > 100 µM | > 100 µM | > 100 µM | > 100 µM | > 100 µM | > 100 µM |
| Cc1nc(-c2ccccc2)cn2c1nc1ccccc12 | 69.9 µM | > 66.8 µM | > 70.9 µM | 36.3 µM | > 100 µM | 53 µM | > 65.8 µM | 99.1 µM | > 76.2 µM | > 24.9 µM | 23.5 µM | 23.4 µM |
| O=C(O)c1nc2cc(Cl)ccc2[nH]c1=O | > 100 µM | > 100 µM | > 100 µM | > 100 µM | > 100 µM | > 100 µM | > 100 µM | > 100 µM | > 100 µM | > 100 µM | > 100 µM | > 100 µM |
| CCOP(=O)(OCC)Oc1c(OC)c2[nH]c(C(=O)OC)cc2c2c(C(=O)O)c[nH]c12 | > 100 µM | > 100 µM | > 100 µM | > 100 µM | > 100 µM | > 100 µM | > 100 µM | > 100 µM | > 100 µM | > 100 µM | > 100 µM | > 100 µM |
